Columns and labels:
[1] = tested on: A549-ACE2 infected with SARS-CoV-2; assay: cell count relative to DMSO; higher = less toxic; settings: 24 h
Caco-2 [2] = assay: cell viability relative to DMSO; higher = less toxic; settings: 72 h
Calu-3 [3] = assay: as above; settings: 72 h
HepG2 [4] = assay: as above; settings: 72 h
Vero E6 [5] = assay: as above; settings: 72 h
[6] = tested on: A549-ACE2 infected with SARS-CoV-2; assay: SARS-CoV-2 infection rate relative to DMSO; higher = more infection; settings: 24 h
A549-ACE2 = assay: drug-induced phospholipidosis relative to tamoxifen; higher = more phospholipidosis
[7] = tested on: A549-ACE2 infected with SARS-CoV-2; assay: morphology score (similarity to uninfected cells); higher = more like uninfected cells; settings: 24 h
Caco-2 [8] = assay: relative viability EC50 (midpoint between 100% and the lowest measured viability); higher = less toxic; settings: 72 h
Calu-3 [9] = assay: as above; settings: 72 h
HepG2 [10] = assay: as above; settings: 72 h
Vero E6 [11] = assay: as above; settings: 72 h
Caco-2 [12] = assay: drug sensitivity score (DSS) for viability; higher = more toxic; extreme values may be limits of the assay; settings: 72 h
Calu-3 [13] = assay: as above; settings: 72 h
HepG2 [14] = assay: as above; settings: 72 h
Vero E6 [15] = assay: as above; settings: 72 h
U2OS [16] = assay: cell viability relative to DMSO; higher = less toxic; settings: 72 h
U2OS [17] = assay: relative viability EC50 (midpoint between 100% and the lowest measured viability); higher = less toxic; settings: 72 h
U2OS [18] = assay: drug sensitivity score (DSS) for viability; higher = more toxic; extreme values may be limits of the assay; settings: 72 h

Cc1nnc2n1-c1sc(CCC(=O)N3CCOCC3)cc1C(c1ccccc1Cl)=NC2 [apafant]
Settings	SARS-CoV-2 infection rate, [6] [%]	cell count, [1] [%]	cell viability, Caco-2 [2] [%]	cell viability, Calu-3 [3] [%]	cell viability, HepG2 [4] [%]	cell viability, Vero E6 [5] [%]	morphology score, [7]
1 nM	–	–	108	94.3	105	111	–
10 nM	–	–	107	94.7	93.7	105	–
100 nM	–	–	101	95.3	108	104	–
0.3 µM	101	101	–	–	–	–	-0.03
1000 nM	–	–	104	105	92.3	105	–
3 µM	83	102	–	–	–	–	0.43
10 µM	102	100	–	–	–	–	-0.18
10000 nM	–	–	94	87.1	102	99.7	–
30 µM	93	103	–	–	–	–	0.24

drug-induced phospholipidosis [%], A549-ACE2
Settings	0.3 µM	0.833333 µM	3.33333 µM	6.66667 µM	10 µM	30 µM
24 h	-0.44	-1.14	-1.04	-0.5	-1.44	-0.48
48 h	0.52	-1.18	0.04	0.92	-0.18	0.6
72 h	2.35	-0.663	0.399	-0.364	0.448	3.95

Settings	drug sensitivity score	relative viability EC50 [µM]
Caco-2 [8]	–	> 10
Caco-2 [12]	0	–
Calu-3 [9]	–	> 10
Calu-3 [13]	0	–
HepG2 [10]	–	> 10
HepG2 [14]	0	–
Vero E6 [11]	–	> 10
Vero E6 [15]	0	–

CC(=O)O[C@@H]1CC[C@@]2(C)[C@@H](CC[C@]3(C)[C@@H]2C(=O)C=C2[C@@H]4[C@@H](C)[C@H](C)CC[C@]4(C)CC[C@]23C)[C@@]1(C)C(=O)O [acetyl-11-keto-beta-boswellic-acid]
cell viability [%]
Settings	Caco-2 [2]	Calu-3 [3]	HepG2 [4]	U2OS [16]	Vero E6 [5]
1 nM	94	93.5	109	101	104
10 nM	109	108	94	98.5	94.4
100 nM	87.8	102	106.6	98.7	99.7
1000 nM	98.1	101	103	102	102
10000 nM	96.5	96.5	101	99.5	104

Settings	drug sensitivity score	relative viability EC50 [µM]
Caco-2 [8]	–	> 10
Caco-2 [12]	0	–
Calu-3 [9]	–	> 10
Calu-3 [13]	0	–
HepG2 [10]	–	> 10
HepG2 [14]	0	–
U2OS [17]	–	> 10
U2OS [18]	0	–
Vero E6 [11]	–	> 10
Vero E6 [15]	0	–

CCc1c(C(=O)Nc2cc(S(=O)(=O)N(CC)CC)ccc2O)[nH]c(C)c1C(C)=O [XD-14]
cell viability [%]
Settings	Caco-2 [2]	Calu-3 [3]	HepG2 [4]	U2OS [16]	Vero E6 [5]
1 nM	101	111	96.8	99.3	96
10 nM	93.5	89.2	106	93	102
100 nM	97.2	104	116	95.6	89.5
1000 nM	98.8	103	97.6	100	91.5
10000 nM	80.8	108	84.6	87.4	95.9

Settings	drug sensitivity score	relative viability EC50 [µM]
Caco-2 [8]	–	> 10
Caco-2 [12]	0.7	–
Calu-3 [9]	–	> 10
Calu-3 [13]	0	–
HepG2 [10]	–	> 10
HepG2 [14]	0.5	–
U2OS [17]	–	> 10
U2OS [18]	0.1	–
Vero E6 [11]	–	> 10
Vero E6 [15]	0.2	–

N#Cc1cc2nc(O)c(O)nc2cc1[N+](=O)[O-] [CNQX]
cell viability [%]
Settings	Caco-2 [2]	Calu-3 [3]	HepG2 [4]	U2OS [16]	Vero E6 [5]
1 nM	99	95.9	99.4	97.9	100
10 nM	96.1	101	94.7	101	100
100 nM	99.8	106	99.1	97.9	104
1000 nM	97.5	97	98.3	104	94.8
10000 nM	94.6	85.8	99.5	96.8	95.2

Settings	drug sensitivity score	relative viability EC50 [µM]
Caco-2 [8]	–	> 10
Caco-2 [12]	0	–
Calu-3 [9]	–	> 10
Calu-3 [13]	0.4	–
HepG2 [10]	–	> 10
HepG2 [14]	0	–
U2OS [17]	–	> 10
U2OS [18]	0	–
Vero E6 [11]	–	> 10
Vero E6 [15]	0	–

NCCCC[C@@H]1NC(=O)[C@@H](Cc2c[nH]c3ccccc23)NC(=O)[C@H](c2ccccc2)NC(=O)[C@@H]2C[C@@H](OC(=O)NCCN)CN2C(=O)[C@H](Cc2ccccc2)NC(=O)[C@H](Cc2ccc(OCc3ccccc3)cc2)NC1=O [pasireotide]
cell viability [%]
Settings	Caco-2 [2]	Calu-3 [3]	HepG2 [4]	U2OS [16]	Vero E6 [5]
1 nM	108	102	91.9	96.7	98.9
10 nM	107	101	105	104	89
100 nM	88.4	87.8	114	95.8	96
1000 nM	110	106	102	102	83.6
10000 nM	146	108	93.3	108	96.8

Settings	drug sensitivity score	relative viability EC50 [µM]
Caco-2 [8]	–	> 10
Caco-2 [12]	0	–
Calu-3 [9]	–	> 10
Calu-3 [13]	0	–
HepG2 [10]	–	> 10
HepG2 [14]	0	–
U2OS [17]	–	> 10
U2OS [18]	0	–
Vero E6 [11]	–	> 10
Vero E6 [15]	0	–

Cc1[nH]cnc1-c1ccc(Cl)cc1 [lofemizole]
Settings	SARS-CoV-2 infection rate, [6] [%]	cell count, [1] [%]	cell viability, Caco-2 [2] [%]	cell viability, HepG2 [4] [%]	cell viability, U2OS [16] [%]	cell viability, Vero E6 [5] [%]	morphology score, [7]
1 nM	–	–	98.4	99.4	95.9	103	–
10 nM	–	–	94.9	102	97.2	97	–
100 nM	–	–	95.2	105	97.5	96.5	–
0.3 µM	94	97	–	–	–	–	0.05
1000 nM	–	–	98.7	93	99.2	96.7	–
3 µM	104	102	–	–	–	–	0.07
10 µM	105	100	–	–	–	–	-0.16
10000 nM	–	–	101	107	103	102	–
30 µM	100	94	–	–	–	–	-0.13

drug-induced phospholipidosis [%], A549-ACE2
Settings	0.3 µM	0.833333 µM	3.33333 µM	6.66667 µM	10 µM	30 µM
24 h	3.89	-1.13	0.51	-0.91	0.71	5.39
48 h	4.07	0.92	2.92	3.98	3.67	11.9
72 h	4.05	0.285	0.756	2.05	2.84	12.6

Settings	drug sensitivity score	relative viability EC50 [µM]
Caco-2 [8]	–	> 10
Caco-2 [12]	0	–
HepG2 [10]	–	> 10
HepG2 [14]	0	–
U2OS [17]	–	> 10
U2OS [18]	0	–
Vero E6 [11]	–	> 10
Vero E6 [15]	0	–

Reference: the supplement of paper PMC13380429
